# In patent publication US20240317708A1, “INHIBITORS OF TRANSGLUTAMINASES” (ZEDIRA GMBH, priority 2021, published 2024):
# Assays:
# [1] = target: T1, recombinant human transglutaminase 2 (Homo sapiens, UniProt P21980); assay: Transglutaminase assay (dansylcadaverine incorporation into dimethylcasein, DCC-assay); format: biochemical; details: recombinant human TG2 10 nM, dansylcadaverine/dimethylcasein, 37° C.
# T1 construct: purchased Zedira T022
# T1 sequence (P21980 1-687): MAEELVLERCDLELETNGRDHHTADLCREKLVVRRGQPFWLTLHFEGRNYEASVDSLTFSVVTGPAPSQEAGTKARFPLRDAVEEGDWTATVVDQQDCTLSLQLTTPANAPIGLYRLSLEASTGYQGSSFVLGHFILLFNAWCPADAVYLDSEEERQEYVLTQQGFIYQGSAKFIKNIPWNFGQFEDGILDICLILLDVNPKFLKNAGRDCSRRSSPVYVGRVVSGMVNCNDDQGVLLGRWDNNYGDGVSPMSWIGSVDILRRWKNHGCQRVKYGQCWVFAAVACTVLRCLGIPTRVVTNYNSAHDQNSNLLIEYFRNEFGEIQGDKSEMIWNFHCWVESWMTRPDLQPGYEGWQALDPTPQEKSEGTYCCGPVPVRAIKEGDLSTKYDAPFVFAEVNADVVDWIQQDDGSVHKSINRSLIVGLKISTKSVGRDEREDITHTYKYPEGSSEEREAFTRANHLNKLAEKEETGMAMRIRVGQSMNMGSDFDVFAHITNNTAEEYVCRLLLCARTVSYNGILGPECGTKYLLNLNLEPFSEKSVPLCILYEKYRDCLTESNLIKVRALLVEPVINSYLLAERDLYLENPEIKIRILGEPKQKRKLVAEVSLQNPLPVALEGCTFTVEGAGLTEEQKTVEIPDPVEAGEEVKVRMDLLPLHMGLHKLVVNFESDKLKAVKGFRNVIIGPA
# How it was run: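 IC50 derived from fluorescence slope between 20 and 30 min (λex 330 nm, λem 500 nm, 37 °C), expressed relative to a 2% DMSO control. Reaction: 10 nM recombinant human TG2, 4 μM dimethylcasein, 16.7 μM dansylcadaverine, 10 mM CaCl2 and glutathione, pH 8.0.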
# [2] = Log D shake flask method (octanol / PBS pH 7.4, HPLC); format: physicochemical; details: octanol/phosphate-buffered saline (PBS); octanol / PBS pH 7.4, shake flask
# Procedure: In order to classify the inventive compounds according to their lipophilicity, Log D values (distribution coefficient) were determined by means of the well-established shake flask method, measuring the partition of a compound between an octanol and phosphate-buffered saline (PBS, pH 7.4) by HPLC.
# [3] = Caco-2 permeability assay (CacoReady kit); format: in vitro ADME; details: human
# How it was run: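 Caco-2 monolayer barrier, commercial ready-to-use kit, manufacturer protocol. Read-out: Papp.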
Compound,IC50 [1] [nM],logD [2],Papp [3] [×10⁻⁶ cm/s]
"COC(=O)/C=C/CC[C@H](NC(=O)c1oc2ccccc2c1C)C(=O)Nc1cccn(CC(=O)N[C@]23C[C@H]4C5CC6CC4[C@@H](C2)[C@@H](C6)[C@@H]5C3)c1=O (stereo in doubt) [III-74, (S,E)-methyl 7-(1-(2-(diamantane-4-amino)-2-oxoethyl)-2-oxo-1,2-dihydropyridin-3-ylamino)-6-(3-methylbenzofuran-2-carboxamido)-7-oxohept-2-enoate]",< 25,3 to 5,1 to 10
"Cc1nc2ncccc2cc1C(=O)N[C@@H](CC/C=C/C(=O)NC1CCCC1)C(=O)Nc1cccn(CC(=O)NC23CC(C2)C3)c1=O [III-146, (S,E)-N7-(1-(2-(bicyclo[1.1.1]pentan-1-ylamino)-2-oxoethyl)-2-oxo-1,2-dihydropyridin-3-yl)-N1-cyclopentyl-6-(2-methyl-1,8-naphthyridine-3-carboxamido)hept-2-enediamide]",250 to 1500,< 1,< 1
"COC(=O)/C=C/CC[C@H](NC(=O)c1cnnn1C)C(=O)Nc1cccn(CC(=O)N[C@H]2C[C@H]3CC[C@]2(C)C3(C)C)c1=O [III-121, (S,E)-methyl 6-(1-methyl-1H-1,2,3-triazole-5-carboxamido)-7-oxo-7-(2-oxo-1-(2-oxo-2-((1R,2S,4R)-1,7,7-trimethylbicyclo[2.2.1]heptan-2-ylamino)ethyl)-1,2-dihydropyridin-3-ylamino)hept-2-enoate]",< 25,1 to 3,< 1
"COC(=O)/C=C/CC[C@H](NC(=O)c1snnc1C)C(=O)Nc1cccn(CC(=O)NC23CC4(C)CC(C)(CC(C)(C4)C2)C3)c1=O [III-108, (S,E)-methyl 7-(1-(2-(3,5,7-trimethyl-1-adamantylamino)-2-oxoethyl)-2-oxo-1,2-dihydropyridin-3-ylamino)-6-(4-methyl-1,2,3-thiadiazole-5-carboxamido)-7-oxohept-2-enoate]",< 25,3 to 5,< 1
"O=C(/C=C/CC[C@H](NC(=O)c1nc(Br)cs1)C(=O)Nc1cccn(CC(=O)NC23CC(C2)C3)c1=O)NCc1ccccc1 [III-155, (S,E)-N1-benzyl-N7-(1-(2-(bicyclo[1.1.1]pentan-1-ylamino)-2-oxoethyl)-2-oxo-1,2-dihydropyridin-3-yl)-6-(4-bromothiazole-2-carboxamido)hept-2-enediamide]",25 to 250,1 to 3,1 to 10
"CCn1c(C(=O)N[C@@H](CC/C=C/C(=O)NC2CCCCC2)C(=O)Nc2cccn(CC(=O)NC34CC(C3)C4)c2=O)cc2ccccc21 [III-148, (S,E)-N7-(1-(2-(bicyclo[1.1.1]pentan-1-ylamino)-2-oxoethyl)-2-oxo-1,2-dihydropyridin-3-yl)-N1-cyclohexyl-6-(1-ethyl-1H-indole-2-carboxamido)hept-2-enediamide]",25 to 250,3 to 5,1 to 10
"Cc1cn2c(C(=O)N[C@@H](CC/C=C/C(=O)NC(C)C)C(=O)Nc3cccn(CC(=O)NC45CC(C4)C5)c3=O)csc2n1 [III-141, (S,E)-N7-(1-(2-(bicyclo[1.1.1]pentan-1-ylamino)-2-oxoethyl)-2-oxo-1,2-dihydropyridin-3-yl)-N1-isopropyl-6-(6-methylimidazo[2,1-b]thiazole-3-carboxamido)hept-2-enediamide]",250 to 1500,< 1,1 to 10
"O=C(/C=C/CC[C@H](NC(=O)c1cnc2ccc(OC(F)(F)F)cc2c1O)C(=O)Nc1cccn(CC(=O)NC23CC(C2)C3)c1=O)NC1CC1 [III-144, (S,E)-N7-(1-(2-(bicyclo[1.1.1]pentan-1-ylamino)-2-oxoethyl)-2-oxo-1,2-dihydropyridin-3-yl)-N1-cyclopropyl-6-(4-hydroxy-6-(trifluoromethoxy)quinoline-3-carboxamido)hept-2-enediamide]",250 to 1500,3 to 5,< 1
"COC(=O)/C=C/CC[C@H](NC(=O)c1sc(C(F)(F)F)nc1C)C(=O)Nc1cccn(CC(=O)NC23CC4CC(C)(CC(C)(C4)C2)C3)c1=O [III-123, (S,E)-methyl 7-(1-(2-(3,5-dimethyladamantane-1-amino)-2-oxoethyl)-2-oxo-1,2-dihydropyridin-3-ylamino)-6-(4-methyl-2-(trifluoromethyl)thiazole-5-carboxamido)-7-oxohept-2-enoate]",< 25,3 to 5,1 to 10
"COC(=O)/C=C/CC[C@H](NC(=O)c1nonc1N)C(=O)Nc1cccn(CC(=O)NC23CC(C2)C3)c1=O [III-160, (S,E)-methyl 6-(4-amino-1,2,5-oxadiazole-3-carboxamido)-7-(1-(2-(bicyclo[1.1.1]pentan-1-ylamino)-2-oxoethyl)-2-oxo-1,2-dihydropyridin-3-ylamino)-7-oxohept-2-enoate]",250 to 1500,< 1,< 1

# Now from value to compound:
IC50 [1] [nM],logD [2],Papp [3] [×10⁻⁶ cm/s],Compound
< 25,3 to 5,1 to 10,"COC(=O)/C=C/CC[C@H](NC(=O)c1cc(Cl)sc1Cl)C(=O)Nc1cccn(CC(=O)N[C@@H]2C[C@@H]3CC[C@H]2C3)c1=O [III-126, (S,E)-methyl 7-(1-(2-((1S,2R,4R)-bicyclo[2.2.1]heptan-2-ylamino)-2-oxoethyl)-2-oxo-1,2-dihydropyridin-3-ylamino)-6-(2,5-dichlorothiophene-3-carboxamido)-7-oxohept-2-enoate]"
< 25,3 to 5,1 to 10,"CCOC(=O)/C=C/CC[C@H](NC(=O)c1oc2ccccc2c1C)C(=O)Nc1cccn(CC(=O)NC2C3CC4CC(C3)CC2C4)c1=O (stereo partly drawn) [III-89, (S,E)-ethyl 7-(1-(2-(2-adamantylamino)-2-oxoethyl)-2-oxo-1,2-dihydropyridin-3-ylamino)-6-(3-methylbenzofuran-2-carboxamido)-7-oxohept-2-enoate]"
25 to 250,1 to 3,< 1,"COC(=O)/C=C/CC[C@H](NC(=O)c1cnn(C)c1)C(=O)Nc1cccn(CC(=O)NC2C3CC4CC(C3)CC2C4)c1=O (stereo partly drawn) [III-130, (S,E)-methyl 7-(1-(2-(2-adamantylamino)-2-oxoethyl)-2-oxo-1,2-dihydropyridin-3-ylamino)-6-(1-methyl-1H-pyrazole-4-carboxamido)-7-oxohept-2-enoate]"
250 to 1500,3 to 5,< 1,"COC(=O)/C=C/CC[C@H](NC(=O)c1c[nH]cn1)C(=O)Nc1cccn(CC(=O)NC2C3CC4CC(C3)CC2C4)c1=O (stereo partly drawn) [III-28, (S,E)-methyl 6-(1H-imidazole-4-carboxamido)-7-(1-(2-(2-adamantylamino)-2-oxoethyl)-2-oxo-1,2-dihydropyridin-3-ylamino)-7-oxohept-2-enoate]"
25 to 250,1 to 3,< 1,"COC(=O)/C=C/CC[C@H](NC(=O)c1oc2ccccc2c1C)C(=O)Nc1cccn(CC(=O)NC2C3CC4CC2CC(O)(C4)C3)c1=O (stereo partly drawn) [III-38, (S,E)-methyl 7-(1-(2-(5-hydroxyadamantan-2-amino)-2-oxoethyl)-2-oxo-1,2-dihydropyridin-3-ylamino)-6-(3-methylbenzofuran-2-carboxamido)-7-oxohept-2-enoate]"
< 25,3 to 5,1 to 10,"COC(=O)/C=C/CC[C@H](NC(=O)c1cc(Cl)sc1Cl)C(=O)Nc1cccn(CC(=O)NC2C3CC4CC(C3)CC2C4)c1=O (stereo partly drawn) [III-13, (S,E)-methyl 6-(2,5-dichlorothiophene-3-carboxamido)-7-(1-(2-(2-adamantylamino)-2-oxoethyl)-2-oxo-1,2-dihydropyridin-3-ylamino)-7-oxohept-2-enoate]"
< 25,3 to 5,1 to 10,"COC(=O)/C=C/CC[C@H](NC(=O)c1cc(Br)sc1Br)C(=O)Nc1cccn(CC(=O)NC2C3CC4CC(C3)CC2C4)c1=O (stereo partly drawn) [III-16, (S,E)-methyl 6-(2,5-dibromothiophene-3-carboxamido)-7-(1-(2-(2-adamantylamino)-2-oxoethyl)-2-oxo-1,2-dihydropyridin-3-ylamino)-7-oxohept-2-enoate]"
< 25,3 to 5,1 to 10,"COC(=O)/C=C/CC[C@H](NC(=O)c1cc2cc(Br)ccc2s1)C(=O)Nc1cccn(CC(=O)NC2C3CC4CC(C3)CC2C4)c1=O (stereo partly drawn) [III-6, (S,E)-methyl 6-(5-bromobenzo[b]thiophene-2-carboxamido)-7-(1-(2-(2-adamantylamino)-2-oxoethyl)-2-oxo-1,2-dihydropyridin-3-ylamino)-7-oxohept-2-enoate]"
